Experiment [1] deals with HSC-2. Put plainly: Cytotoxicity against human HSC2 cells assessed as cell viability up to 100 uM after 24 hrs. The class given is functional, cell-based.
Experiment [2] deals with HSC-2. Nature of the experiment: Cytotoxicity against human HSC2 cells assessed as cell viability after 24 hrs. The class given is functional, cell-based. The conditions noted are these: HSC-2, 24 h.

Activity calls are given as the source filed them. No cut-off for these calls is given here.

Consider `CCC(=O)[C@H]1C[C@@H](C)[C@]2(CC(=O)[C@@]3(C)C4=C(CC[C@@]32C)[C@@]2(C)CC[C@H](O[C@@H]3O[C@H](CO[C@@H]5OC[C@H](O)[C@H](O)[C@H]5O[C@@H]5O[C@H](CO)[C@@H](O)[C@H](O)[C@H]5O[C@@H]5O[C@@H](C)[C@H](O)[C@@H](O)[C@H]5O)[C@@H](O)[C@H](O)[C@H]3O)[C@](C)(CO)[C@@H]2CC4)O1`, for which the result with HSC-2 [1] was inactive.
For the molecule `CCC(=O)[C@@H]1C[C@@H](C)[C@]2(CC(=O)[C@@]3(C)C4=C(CC[C@@]32C)[C@@]2(C)CC[C@H](O[C@@H]3O[C@H](CO[C@@H]5OC[C@H](O)[C@H](O)[C@H]5O[C@@H]5O[C@H](CO)[C@@H](O)[C@H](O[C@@H]6OC[C@H](O)[C@H](O)[C@H]6O[C@@H]6OC[C@@H](O)[C@H](O)[C@H]6O)[C@H]5O[C@@H]5O[C@@H](C)[C@H](O)[C@@H](O)[C@H]5O)[C@@H](O)[C@H](O)[C@H]3O)[C@](C)(CO)[C@@H]2CC4)O1`, the IC50 in the experiment with HSC-2 [2] turned out to be 19 µM.
As for `CCC(=O)[C@H]1C[C@@H](C)[C@]2(CC(=O)[C@@]3(C)C4=C(CC[C@@]32C)[C@@]2(C)CC[C@H](O[C@@H]3O[C@H](CO[C@@H]5OC[C@H](O)[C@H](O)[C@H]5O[C@@H]5O[C@H](CO)[C@@H](O)[C@H](O)[C@H]5O[C@@H]5OC[C@](O)(CO)[C@H]5O)[C@@H](O)[C@H](O)[C@H]3O)[C@](C)(CO)[C@@H]2CC4)O1`, in the experiment with HSC-2 [1], the result was inactive.
On to `CCC(=O)[C@@H]1C[C@@H](C)[C@]2(CC(=O)[C@@]3(C)C4=C(CC[C@@]32C)[C@@]2(C)CC[C@H](O[C@@H]3O[C@H](CO[C@@H]5OC[C@H](O)[C@H](O)[C@H]5O[C@@H]5O[C@H](CO)[C@@H](O)[C@H](O)[C@H]5O[C@@H]5O[C@@H](C)[C@H](O)[C@@H](O)[C@H]5O)[C@@H](O)[C@H](O)[C@H]3O)[C@](C)(CO)[C@@H]2CC4)O1`, for which the IC50 in the experiment on HSC-2 [2] stood at 63 µM.
Take `CCC(=O)[C@@H]1C[C@@H](C)[C@]2(CC[C@@]3(C)C4=C(CC[C@@]32C)[C@@]2(C)CC[C@H](O[C@@H]3O[C@H](CO[C@@H]5OC[C@H](O)[C@H](O)[C@H]5O[C@@H]5O[C@H](CO)[C@@H](O)[C@H](O[C@@H]6OC[C@H](O)[C@H](O)[C@H]6O[C@@H]6OC[C@@H](O)[C@H](O)[C@H]6O)[C@H]5O[C@@H]5O[C@@H](C)[C@H](O)[C@@H](O)[C@H]5O)[C@@H](O)[C@H](O)[C@H]3O)[C@](C)(CO)[C@@H]2CC4)O1`: the IC50 in the experiment on HSC-2 [2] amounted to 7.3 µM.
The same measure, in the same setting: the same measure for `CCC(=O)[C@@H]1C[C@@H](C)[C@]2(CC[C@@]3(C)C4=C(CC[C@@]32C)[C@@]2(C)CC[C@H](O[C@@H]3O[C@H](CO[C@@H]5OC[C@H](O)[C@H](O)[C@H]5O[C@@H]5O[C@H](CO)[C@@H](O)[C@H](O)[C@H]5O[C@@H]5O[C@@H](C)[C@H](O)[C@@H](O)[C@H]5O)[C@@H](O)[C@H](O)[C@H]3O)[C@](C)(CO)[C@@H]2CC4)O1`: 32 µM; for `CCC(=O)[C@@H]1C[C@@H](C)[C@]2(CC(=O)[C@@]3(C)C4=C(CC[C@@]32C)[C@@]2(C)CC[C@H](O[C@@H]3O[C@H](CO[C@@H]5OC[C@H](O)[C@H](O)[C@H]5O[C@@H]5O[C@H](CO)[C@@H](O)[C@H](O)[C@H]5O[C@@H]5OC[C@](O)(CO)[C@H]5O)[C@@H](O)[C@H](O)[C@H]3O)[C@](C)(CO)[C@@H]2CC4)O1`: 6.2 µM.
Turning to `CCC(=O)[C@H]1C[C@@H](C)[C@]2(CC(=O)[C@@]3(C)C4=C(CC[C@@]32C)[C@@]2(C)CC[C@H](O[C@@H]3O[C@H](CO[C@@H]5OC[C@H](O)[C@H](O)[C@H]5O[C@@H]5O[C@H](CO)[C@@H](O)[C@H](O[C@@H]6OC[C@H](O)[C@H](O)[C@H]6O[C@@H]6OC[C@@H](O)[C@H](O)[C@H]6O)[C@H]5O[C@@H]5O[C@@H](C)[C@H](O)[C@@H](O)[C@H]5O)[C@@H](O)[C@H](O)[C@H]3O)[C@](C)(CO)[C@@H]2CC4)O1`, the result with HSC-2 [1] was inactive.

The record behind these values is ChEMBL document CHEMBL1148985, “27-norlanostane glycosides from the bulbs of Muscari paradoxum” (J Nat Prod, 2004).
